Reference: patent US11485701B2, “Insect repellent compounds and compositions, and methods thereof” (Iowa State University Research Foundation, Inc., priority 2016, dated 2022)
Entries after “also recorded” stand apart in the source; their conditions may differ.

Test system: Aedes aegypti
Assay: Human skin testing, biting deterrence (BioGents test cage, treated nylon sleeve)
Assay type: in vivo
Protocol: Female mosquitoes (Aedes aegypti) were reared according to the standard protocol at a temperature of 27.5±1° C., a relative humidity of 65-80% and a 12:12 hour photo period. The light period (450 Lux) was set from 7:00 to 19:00. After hatching from the eggs, larvae were kept in a water basin (30×30×10 cm) filled with a 1:1 mixture of tap- and deionized water with low oxygen content and fed with fish food flakes (Tetra Min®). Pupae were transferred to a cage (40×30×20 cm) provided with sugar solution (10% dextrose). Mosquitoes at an age of 5 to 10 days post-emergence were used for behavioral tests.
BioGents (BG) test cages are an in-house improvement of conventional test cages for the evaluation of mosquito repellents (Obermayr et al., “A Novel Test Cage with an Air Ventilation System as an Alternative to Conventional Cages for the Efficacy Testing of Mosquito Repellents,” J. Med. Entomol. 47:1116-22 (2010) which is hereby incorporated by reference in its entirety). The cages have a volume of 27.000 cm^3 (41×41×16 cm). Four sides of a cage are made of acrylic glass, the floor is made of metal sheet, and the rear side is covered by a gauze sleeve. The floor sheet is equipped with a test window (size: 56 cm^2; 14.8×3.8 cm) for the exposure of the treated skin. In between tests, BG cages are connected to a ventilation system that provides clean, warm, and humid air (26±1° C., 65±5% R.H.) to remove remaining host odours and repellent volatiles from the air inside the cage. In the presented study, the ventilation system was not applied as mosquitoes were only tested once and then discarded. Each treated sleeve was tested on a fresh batch of mosquitoes. Each cage was filled with populations of 30 mosquitoes, lured out of their rearing cages by a natural stimulus (human hand) to ensure that only host-seeking females are used for the repellent tests
All formulations have been stored at 4° C. Prior to testing, stock formulations were diluted v/v to final concentrations of 10% in 200 proof ethanol. […] For each test formulations, 2 pieces were prepared—one was treated, while the other one remained untreated and was worn between skin and treated nylon sleeve.
From each test formulation 5 ml were filled into 25 ml glass flasks; immediately afterwards stockings were folded into the flasks and pushed into the liquid formulation with a clean spatula. Flasks were sealed and incubated in the fridge overnight. On the consecutive day, one of the treated nylon pieces was removed from the flasks and left to dry on a clean paper towel for at least 10 minutes or until the ethanol had evaporated. The drying process was conducted at 27° C. and 65% to 80%. One untreated nylon sleeve was attached to the forearm followed by the treated sleeve.
Prior to a repellent efficacy test, the biting activity of the test mosquitoes was verified with the other, untreated forearm of a volunteer (wearing an untreated nylon sleeve). To keep biting pressure on the untreated skin low, a modified spacer covered with fine mosquito netting was used in control tests. Mosquitoes were still attracted to the skin odours and landed on the net, however they were not able to reach the skin and pierce it. A minimum of 10 landings had to be observed in 30 seconds during tests with Ae. aegypti. In case of lowered biting activities, 5 to 10 new mosquitoes were added to the cage or 30 new mosquitoes are used. […] The number of landing and biting mosquitoes was recorded. […]

[1] = nylon treated with 10% in ethanol, max 2 min exposure, one volunteer

CC(C)=CCCC(C)CC(=O)OCC(C)O (centres unmarked) [Compound 2144, 2-hydroxypropyl citronellate]
Observations (nylon treated with 10%): Repellent effects were clearly noticeable; also recorded: Visible repelient effects | Bites (nylon treated with 10% in ethanol, bites per 120 sec): 0/120 sec | Contacts: Landing (mosquitoes sits for >3 sec) [1]: 2 | Contacts: Short touch-down [1]: 18 | bite reduction (nylon treated with 10%, versus untreated nylon): (100% bite reduction)
